According to ChEMBL document CHEMBL3600346, “Synthesis and carbonic anhydrase inhibitory properties of novel uracil derivatives” (Bioorg Med Chem Lett, 2015):
Activity calls are given as the source filed them. No cut-off for these calls is given here.

What was measured:
Carbonic anhydrase 1 [1] = molecular target: T1, Carbonic anhydrase 1 (Homo sapiens, UniProt P00915); assay: Competitive inhibition of human erythrocytes CA1 using 4-nitrophenylacetate as substrate by Lineweaver-Burk plot analysis
Target sequence in this assay (P00915 2-261 limits assumed): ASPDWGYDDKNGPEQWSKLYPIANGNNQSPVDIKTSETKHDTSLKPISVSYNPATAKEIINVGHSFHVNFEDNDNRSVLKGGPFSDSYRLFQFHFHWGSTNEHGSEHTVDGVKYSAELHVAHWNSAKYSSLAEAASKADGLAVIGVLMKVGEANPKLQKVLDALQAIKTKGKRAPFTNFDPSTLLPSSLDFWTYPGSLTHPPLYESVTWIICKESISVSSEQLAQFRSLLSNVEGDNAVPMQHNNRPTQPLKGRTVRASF

Carbonic anhydrase 1 [2] = molecular target: T1, Carbonic anhydrase 1; assay: Inhibition of human erythrocytes CA1 using 4-nitrophenylacetate as substrate by esterase assay
Target sequence in this assay (P00915 whole entry): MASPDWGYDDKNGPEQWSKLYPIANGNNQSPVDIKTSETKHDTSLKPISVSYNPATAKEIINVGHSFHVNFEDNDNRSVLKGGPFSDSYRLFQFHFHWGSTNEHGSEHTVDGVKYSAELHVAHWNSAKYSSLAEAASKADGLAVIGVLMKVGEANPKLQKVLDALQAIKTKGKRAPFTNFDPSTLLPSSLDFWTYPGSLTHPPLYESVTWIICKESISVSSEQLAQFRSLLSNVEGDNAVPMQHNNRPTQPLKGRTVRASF

Carbonic anhydrase 2 = Carbonic anhydrase 2 (Homo sapiens, UniProt P00918); assay: Inhibition of human erythrocytes CA2 using 4-nitrophenylacetate as substrate by esterase assay

Compound: Oc1ccccc1O
- inhibition (Carbonic anhydrase 1 [1]): Active

Compound: Cc1cc(O)nc(O)n1
- Ki (Carbonic anhydrase 1 [2]): 57.8 µM
- Ki (Carbonic anhydrase 2): Not Active
- inhibition (Carbonic anhydrase 1 [1]): Active

Compound: CC(=O)n1cc(Br)c(=O)[nH]c1=O
- Ki (Carbonic anhydrase 1 [2]): 464 µM
- Ki (Carbonic anhydrase 2; read-out: Ki): 778 µM
- inhibition mode (Carbonic anhydrase 1 [1]): Active

Compound: CS(=O)(=O)n1cc(Br)c(=O)[nH]c1=O
- Ki (Carbonic anhydrase 1 [2]): 428 µM
- Ki (Carbonic anhydrase 2; read-out: Ki): 645 µM
- inhibition mode (Carbonic anhydrase 1 [1]): Active

Compound: Oc1cccc(O)c1
- inhibition mode (Carbonic anhydrase 1 [1]): Active

Compound: Cc1ccc(S(=O)(=O)n2cc(Br)c(=O)[nH]c2=O)cc1
- Ki (Carbonic anhydrase 1 [2]): 10.8 µM
- Ki (Carbonic anhydrase 2; read-out: Ki): 28.9 µM
- inhibition mode (Carbonic anhydrase 1 [1]): Active

Compound: Oc1ccccc1
- inhibition (Carbonic anhydrase 1 [1]): Active

Compound: O=c1[nH]cc(CO)c(=O)[nH]1
- Ki (Carbonic anhydrase 1 [2]): 49.5 µM
- Ki (Carbonic anhydrase 2): Not Active

Compound: Cn1ccc(=O)n(C)c1=O
- Ki (Carbonic anhydrase 1 [2]): 316 µM
- Ki (Carbonic anhydrase 2; read-out: Ki): 166 µM
- inhibition mode (Carbonic anhydrase 1 [1]): Active
